pIC50: −log10 of the molar value. Where two headings read alike, the source gives them in different places.
Columns and labels:
[1] = molecular target: T1, nicotinamide phosphoribosyl transferase (NAMPT) (Homo sapiens, UniProt P43490); experiment: NAMPT activity measurement (NMN fluorescence detection); assay type: biochemical; settings: NAMPT recombinant protein, 10 µM Nam; for pIC50: read-out: Evaluation on NAMPT inhibitory
T1 construct: purchased Medical & Biological Laboratories Co., Ltd. (MBL)
Procedure: The compound of the present invention was evaluated for the ability to influence the activity of nicotinamide phosphoribosyl transferase (NAMPT) which is an enzyme that metabolizes nicotinamide (Nam), not the target SARM1.
The enzymatic reaction of NAMPT was carried out by adding NAMPT recombinant protein (manufactured by Medical & Biological Laboratories Co., Ltd. (MBL)) to a reaction solution containing the substrate Nam, phosphoribosylpyrophosphate (PRPP), ATP, and the like (composition: […] (pH = 7.4), 2 µM ATP, 0.5 µM PRPP, 0.02% BSA, 2 µM DTT, 1.2 µM MgCl2, and 10 µM Nam). The amount of the reaction product NMN was detected by detecting the fluorescent signal of a fluorescent substance obtained through the reaction of 2-acetylbenzofuran with NMN using SpectraMax M2 (Molecular Devices) (excitation: 421 nm, fluorescence: 480 nm) (Moriya et al, Chemical Communications 2013, 49 11500). The test compound was added at final concentrations of 10 µM, 3 µM, 1 µM, 300 nM, 100 nM, 30 nM, 10 nM, and 3 nM to the NMN synthesis reaction system described above. The NMN-derived fluorescent signal was normalized against a control group and plotted as the function of the test compound concentrations, and the compound was evaluated for its NAMPT inhibitory effect by calculating IC50.
The IC50 value was evaluated as ∘ for ≥1 µM and as Δ for ≥0.1 µM.

[2] = tested on: primary cultured cells of mouse fetus-derived dorsal root ganglia (DRGs); experiment: Suppression of axonal degeneration after axotomy in DRG explant culture; assay type: cell-based; settings: minimum concentration at which axonal degeneration was suppressed (DI 0.3 or less), 24 hours after axotomy; for minimal effective concentration: Mus musculus, read-out: Evaluation on protection against degeneration
Procedure: The compound of the present invention was studied for its protective effect against axonal injury using primary cultured cells of mouse fetus-derived dorsal root ganglia (DRGs).
DRGs were collected from a fetus derived from an ICR mouse (13.5 days of pregnancy). DRGs were cultured using a plate coated by incubation with 0.1 mg/mL poly-L-lysine at 4°C for 24 hours or longer, washing with PBS, and then incubation with 2.5 µg/mL Cultrex Mouse Laminin I at 37°C for 4 to 6 hours.
One of DRGs collected was plated to each well of the coated 24-well plate. The DRG was cultured in a nicotinamide-free medium for neuron (supplemented with 10% FBS, 1 mM glutamine, 50 ng/mL NGF2.5S, and penicillin-streptomycin) for 24 hours at maximum from the start of culture and then cultured in a nicotinamide-free medium for neuron (supplemented with 2% MACS NeuroBrew-21, 50 ng/mL NGF2.5S, 1% Glutamax, 20 µM uridine, 20 µM 5-fluoro-2'-deoxyuridine, and penicillin-streptomycin) for 7 to 8 days.
The nicotinamide-free medium for neuron was prepared so as to have the same constituents as those of the composition published in a previously reported paper (Brewer et al., J. Neuroscience Research 35: 567-576) except for nicotinamide with reference to this composition.
The test compound is dissolved in DMSO and added to cells such that the final concentration of DMSO is 0.1% (1000-fold dilution). 10 mM, 1 mM, 100 µM, 10 µM, 1 µM, and 100 nM samples of the test compound are prepared and added at a 1000-fold dilution to cells.
Axotomy was carried out by scooping out a cell body portion of the cultured DRG with a chip for a micropipette. The test compound was added at the following concentrations (final concentration: 10 µM, 1 µM, 100 nM, 10 nM, 1 nM, and 100 pM) within 30 minutes after axotomy. The compound was evaluated for its protective effect against axonal degeneration by imaging (Leica DMIL microscope, 20× objective lens) the state of neurites 24 hours after axotomy and evaluating the degree of degeneration. The degree of degeneration was quantified using a program uniquely developed using the R language. A degeneration index (DI) was used as an indicator for the degree of degeneration, and the ratio of the area of a fragmented axon to the total area of axons was calculated as defined in the equation of Expression 2. Suppressed axonal degeneration was evaluated when the value of DI was 0.3 or less. The minimum concentration at which axonal degeneration was suppressed was determined for each compound. Degeneratioin index (DI) = (Degenerated axons)/(All axons) [formula]
The axonal protective activity was evaluated as A ≤ 0.01 µM, 0.01 µM < B ≤ 0.1 µM, and 0.1 µM < C ≤ 1 µM depending on the minimum concentration at which axonal degeneration was suppressed.

hSARM1 = molecular target: T2, hSARM1 (Homo sapiens, UniProt Q6SZW1); experiment: Human SARM1 activity measurement in HEK293 cells transiently transfected with ΔN-hSARM1 (PC6 fluorescent probe); assay type: cell-based; set-up: expressed in transfected cells; host or cells: HEK293, pcDNA3 expression vector
T2 sequence (Q6SZW1 28-724): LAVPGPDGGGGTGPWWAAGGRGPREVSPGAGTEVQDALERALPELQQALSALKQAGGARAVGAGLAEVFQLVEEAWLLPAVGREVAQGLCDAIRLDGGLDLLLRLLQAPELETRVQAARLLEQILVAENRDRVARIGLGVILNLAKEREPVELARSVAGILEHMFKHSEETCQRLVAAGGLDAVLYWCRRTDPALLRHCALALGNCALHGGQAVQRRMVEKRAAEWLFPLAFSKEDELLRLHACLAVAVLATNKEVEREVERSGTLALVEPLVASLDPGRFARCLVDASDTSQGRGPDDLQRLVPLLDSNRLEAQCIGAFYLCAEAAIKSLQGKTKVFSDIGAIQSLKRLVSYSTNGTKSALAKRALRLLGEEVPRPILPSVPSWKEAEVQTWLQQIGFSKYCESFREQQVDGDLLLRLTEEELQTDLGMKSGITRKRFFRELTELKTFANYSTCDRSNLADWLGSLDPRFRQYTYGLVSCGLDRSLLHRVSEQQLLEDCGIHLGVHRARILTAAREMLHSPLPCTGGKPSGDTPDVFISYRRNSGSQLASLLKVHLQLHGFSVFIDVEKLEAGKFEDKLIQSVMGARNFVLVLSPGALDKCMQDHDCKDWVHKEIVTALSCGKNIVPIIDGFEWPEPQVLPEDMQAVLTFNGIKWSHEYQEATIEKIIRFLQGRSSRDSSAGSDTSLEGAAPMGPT
Procedure: HEK293 cells cultured in a prepared medium of nicotinamide-free DMEM (Dulbecco's modified Eagle medium) supplemented with 10% FBS (BioSera), a 1% penicillin-streptomycin solution (FUJIFILM Wako Pure Chemical Corp.), 5 μM nicotinamide were inoculated at approximately 50,000 cells/well to a 96-well microplate, and the cells were cultured at 37°C under 5% CO2, transiently transfected on the next day with a pcDNA3 expression vector containing a DNA sequence (SEQ ID NO: 1) deficient in a mitochondrial targeting sequence encoded by an N-terminal 78-base sequence in cDNA encoding human sterile α- and armadillo-motif-containing protein (hSARM1) using PEI MAX(R) reagent (PolySciences Inc.), and forced to express ΔN-hSARM1 (SEQ ID NO: 2). Approximately 8 hours later, PC6, which reacts as a substrate of SARM1-specific base exchange reaction and functions as a fluorescent probe, was added thereto at a final concentration of 50 μM, and intracellular hSARM1 activity was measured (Li et al, eLife 2021 10: e67381). A compound for inhibitory activity evaluation was added at a final concentration of 30 μM at the same time with PC6, while dimethyl sulfoxide (Nacalai Tesque Inc.) was added to samples of a control group at the same time with PC6. The cells were incubated at 37°C under 5% CO2 for approximately 48 hours from transfection, followed by fluorescent signal measurement using SpectraMax M2 (Molecular Devices) (excitation: 405 nm, fluorescence: 525 nm, fluorescence cutoff: 515 nm). Results of this screening are reported as an inhibition rate (%) relative to a negative control defined as follows by using fluorescence intensity measured from a control group without transfection with ΔN-hSARM1 as a background whereas using fluorescence intensity measured from a control group transfected with ΔN-hSARM1 as the negative control. Inhibitory rate (%) = 100-(([…]-Background))/((Signalofthenegativecontrol-Background)) × 100 [formula] The nicotinamide-free medium was prepared so as to have the same composition as that of DMEM having known composition which is generally used in the art except for nicotinamide. […]

[3] = inhibition rate, compound 30 µM, PC6 50 µM, HEK293 cells expressing ΔN-hSARM1, approximately 48 hours from transfection, read-out: Evaluation on hSARM1 inhibitory

T1 sequence (P43490 whole entry, species assumed): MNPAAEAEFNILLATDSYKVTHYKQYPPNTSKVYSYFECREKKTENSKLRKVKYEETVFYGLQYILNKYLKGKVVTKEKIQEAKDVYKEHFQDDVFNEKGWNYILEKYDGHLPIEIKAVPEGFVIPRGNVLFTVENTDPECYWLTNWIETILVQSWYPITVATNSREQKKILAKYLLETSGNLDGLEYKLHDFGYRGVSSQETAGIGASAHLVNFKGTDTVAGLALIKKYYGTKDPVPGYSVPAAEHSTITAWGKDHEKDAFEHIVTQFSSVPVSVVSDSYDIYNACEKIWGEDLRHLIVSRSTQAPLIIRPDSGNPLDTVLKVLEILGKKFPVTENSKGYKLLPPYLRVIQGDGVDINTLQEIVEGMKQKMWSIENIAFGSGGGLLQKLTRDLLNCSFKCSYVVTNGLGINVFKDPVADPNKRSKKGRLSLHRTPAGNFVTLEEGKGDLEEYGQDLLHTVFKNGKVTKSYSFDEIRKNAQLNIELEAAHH

SMILES	Evaluation on NAMPT inhibitory [1]	inhibition at 30 µM (hSARM1; [3]) [%]	pIC50 [1]	minimal effective concentration [2] [µM]	Evaluation on protection against degeneration [2]	inhibition at 30 µM (hSARM1; HEK293, read-out: Evaluation on hSARM1 inhibitory) [%]
O=C(NCc1ccc(NC(=O)c2ccc(F)cc2)nc1)c1cccnc1 [Compound 117]	○	> 75	–	≤ 0.01	–	–
O=C(NCc1ccc(NC(=O)c2ccc(Cl)cc2)nc1)c1cccnc1 [Compound 118]	○	> 75	–	≤ 0.01	–	–
Cc1ccc(C(=O)Nc2ccc(CNC(=O)c3cccnc3)cn2)cc1 [Compound 119]	○	> 75	–	≤ 0.01	–	–
O=C(NCc1ccc(NC(=O)c2cccnc2)nc1)c1cccnc1 [Compound 120]	○	> 25	–	≤ 0.01	–	–
O=C(NCc1ccc(NC(=O)c2ccc3ncccc3c2)nc1)c1cccnc1 [Compound 122]	○	> 75	–	≤ 0.01	–	–
O=C(Cc1ccc2ccccc2c1)Nc1ccc(CNC(=O)c2cccnc2)cn1 [Compound 123]	–	> 75	≤ 7.00	≤ 0.01	–	–
O=C(NCc1ccc(NC(=O)c2ccncc2)nc1)c1cccnc1 [Compound 124]	○	> 75	–	≤ 0.01	–	–
O=C(NCc1ccc(NC(=O)c2ccccn2)nc1)c1cccnc1 [Compound 125]	–	> 75	≤ 7.00	≤ 0.01	–	–
O=C(NCc1ccc(NC(=O)c2cnc3ccccc3c2)nc1)c1cccnc1 [Compound 126]	–	> 75	≤ 7.00	≤ 0.01	–	–
O=C(NCc1ccc(NC(=O)c2ccc3ccccc3c2)nc1)c1cccnc1 [Compound 127]	–	> 75	≤ 7.00	≤ 0.01	–	–
O=C(NCc1ccc(NC(=O)c2ccc(-c3ccccc3)cc2)nc1)c1cccnc1 [Compound 128]	○	> 75	–	≤ 0.01	–	–
Cc1ccc(C(=O)Nc2ccc(CNC(=O)c3cccnc3)cn2)c(C)c1 [Compound 135]	○	–	–	–	A (A ≤ 0.01 µM)	> 75

Further lines, with some results ahead:

Evaluation on NAMPT inhibitory [1]	inhibition at 30 µM (hSARM1; [3]) [%]	pIC50 [1]	SMILES	minimal effective concentration [2] [µM]	Evaluation on protection against degeneration [2]	inhibition at 30 µM (hSARM1; HEK293, read-out: Evaluation on hSARM1 inhibitory) [%]
○	> 75	–	COc1ccc(C(=O)Nc2ccc(CNC(=O)c3cccnc3)cn2)cc1 [Compound 129]	≤ 0.01	–	–
○	> 75	–	Cc1ccccc1C(=O)Nc1ccc(CNC(=O)c2cccnc2)cn1 [Compound 130]	≤ 0.01	–	–
○	> 75	–	CCc1ccc(C(=O)Nc2ccc(CNC(=O)c3cccnc3)cn2)cc1 [Compound 131]	≤ 0.01	–	–
○	> 75	–	O=C(NCc1ccc(NC(=O)c2cccc(Cl)c2)nc1)c1cccnc1 [Compound 132]	≤ 0.01	–	–
○	> 75	–	O=C(NCc1ccc(NC(=O)c2ccccc2F)nc1)c1cccnc1 [Compound 133]	≤ 0.01	–	–
○	> 75	–	Cc1ccc(C(=O)Nc2ccc(CNC(=O)c3cccnc3)cn2)cc1C [Compound 134]	≤ 0.01	–	–
○	> 75	–	Cc1cc(C)cc(C(=O)Nc2ccc(CNC(=O)c3cccnc3)cn2)c1 [Compound 136]	≤ 0.01	–	–
○	> 75	–	O=C(NCc1ccc(NC(=O)c2ccc(F)c(F)c2)nc1)c1cccnc1 [Compound 137]	≤ 0.01	–	–
○	> 75	–	O=C(NCc1ccc(NC(=O)c2cc(F)cc(F)c2)nc1)c1cccnc1 [Compound 138]	≤ 0.01	–	–
○	> 25	–	O=C(NCc1ccc(NC(=O)c2ccc(F)cc2F)nc1)c1cccnc1 [Compound 139]	≤ 0.01	–	–

Source: patent EP4793271A1, “NEUROPROTECTIVE AGENT” (National Center of Neurology and Psychiatry, priority 2023, dated 2025)
